# Measured values published in patent publication US12422427B2, “Compounds for treatment of diseases and methods of screening therefor” (Max-Planck-Gesellschaft zur Förderung der Wissenschaften …, priority 2018, dated 2025).
# “Also recorded” adds a separate entry of the source.
# Legend:
# [1] = in vivo; cited from earlier work
# [2] = system: D. melanogaster overexpressing human wild type FUS or ALS-associated FUS mutations; assay: Climbing assay: motor defects in D. melanogaster expressing human FUS; type: in vivo, Drosophila melanogaster; conditions: for motor defect / ability to climb: flies expressing wild-type FUS, FUS P525L or FUS R521C
# Experimental: All Drosophila stocks were maintained on standard cornmeal at 25° C. in light/dark controlled incubator. The w1118, UAS-eGFP, and D42-GAL4 were obtained from Bloomington stock center. The UAS-FUS WT, UAS-FUS P525L, and UAS-FUS R521C were previously described in Anderson et al. (Hum. Mol. Genet. 27, 1366-1381, 2018).
# Climbing assays were performed as previously described. Briefly, flies expressing FUS, eGFP or w1118 were grown in the presence or absence of (±)-α-Lipoic Acid (0.43 mM or 2.15 mM diluted in ethanol), (R)-(+)-α-Lipoic Acid (0.43 mM or 2.15 mM diluted in ethanol), (S)-(−)-α-Lipoic Acid (0.43 mM or 2.15 mM diluted in ethanol), (±)-α-Lipoamide (0.43 mM diluted in DMSO), or PP 242/Torkinib (10 μM or 50 μM diluted in DMSO), then anesthetised, placed into vials and allowed to acclimatise for 15 mins in new vials. For each fly genotype, the vial was knocked three times on the base on a bench and a video camera was used to record the flies climbing up the vial walls. The percentage of flies that climbed 4 cm in 30 s was recorded. Statistical analysis was carried out in GraphPad Prism 6 using either Student's T-test or one-way ANOVA with Tukey's or Dunnet's multiple comparisons test.
# G156E FUS GFP = target: T1, G156E FUS GFP (Homo sapiens, UniProt P35637, G156E); assay: In vitro FUS GFP solidification (aging, fibre formation, FRAP); type: biochemical; conditions: for fibre formation of G156E FUS / hardening of FUS droplets (FRAP mobile fraction): 30 μM, aging while shaking, 1 mM DTT
# T1 construct: His MBP (N, cleaved yes); made in house; host or cells: baculovirus/insect cell expression system
# T1 sequence (P35637 1-526 G156E): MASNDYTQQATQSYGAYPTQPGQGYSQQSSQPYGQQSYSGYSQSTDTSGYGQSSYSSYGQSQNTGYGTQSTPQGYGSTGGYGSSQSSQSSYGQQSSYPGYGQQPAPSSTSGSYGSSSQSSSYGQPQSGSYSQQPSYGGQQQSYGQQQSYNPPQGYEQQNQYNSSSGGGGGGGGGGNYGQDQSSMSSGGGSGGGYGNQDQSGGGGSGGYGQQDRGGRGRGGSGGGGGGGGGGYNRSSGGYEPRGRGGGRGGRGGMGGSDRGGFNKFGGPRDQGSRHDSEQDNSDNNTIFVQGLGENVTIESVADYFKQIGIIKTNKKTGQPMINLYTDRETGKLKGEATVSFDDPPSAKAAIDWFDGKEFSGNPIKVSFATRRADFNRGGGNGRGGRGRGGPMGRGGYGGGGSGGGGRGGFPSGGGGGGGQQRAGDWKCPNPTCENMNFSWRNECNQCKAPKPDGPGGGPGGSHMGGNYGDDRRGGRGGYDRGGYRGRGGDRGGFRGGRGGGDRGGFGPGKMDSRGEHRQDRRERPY
# Experimental: Therefore, hardening and fibre formation, another kinetic phenomenon, were analysed. In vitro FUS droplets ‘age’ over time, first hardening then tending to form amyloid/prion-like fibres. This is accelerated for G156E FUS, a mutation associated with familial ALS.
# For in vitro solidification assays, FUS GFP in storage buffer was diluted in water to give 10 μM FUS, 50 mM Tris·HCl pH 7.4 and 1 mM DTT in a 20 μl volume in non-binding clear bottom 384 well plates (Greiner Bio-One, 781906). […] Fibre and droplet formation were analysed by widefield epifluorescence using a DeltaVision Elite microscope (GE Healthcare Life Sciences) with a Plan ApoN 60× NA 1.4 oil immersion objective (Olympus) and an sCMOS camera (PCO). For salt sensitivity of droplet formation FUS GFP in storage buffer was diluted in the appropriate concentration of KCl pre-mixed with compound or DMSO to generate the final KCl concentration series with 30 μM compound concentration and 0.3% DMSO.
# Fluorescence recovery after photobleaching (FRAP) of FUS GFP droplets and fibres was performed on a Nikon TiE inverted microscope with a Nikon Apo 100× NA 1.49 oil immersion objective using a Yokogawa CSU-X1 spinning disc head and an Andor iXon EM+ DU-897 EMCCD camera. 10×10 px regions were bleached for […] with a 6 mW 405 nm laser using an Andor FRAPPA beam delivery unit then imaged for 5 min at 5 Hz. Recovery curve half-life and mobile fraction were calculated in ImageJ.
# [3] = system: EWSR1, TIAL1, PABPC1, G3BP1; assay: Panel of HeLa lines expressing GFP-labelled stress granule proteins, arsenate stress; type: cell-based; conditions: 1 mM arsenate, 10 μM compound
# Experimental: It was anticipated that a useful therapeutic would prevent all PLD-containing stress granule proteins from localising to stress granules. The inventors used 1 mM arsenate to stress a panel of HeLa cell lines expressing GFP fusions of stress granule proteins (EWSR1, TIAL1, PABPC1, G3BP1) with either no treatment or 10 μM lipoic acid or lipoamide.
# Compound effects were assessed under a variety of conditions in HeLa or iPS cells expressing wild-type or P525L FUS GFP by live cell imaging. Different combinations of 1 h pre-treatment compound or pre-stress with arsenate followed by 1 h treatment with compound and/or stress with arsenate. Unless otherwise indicated, cells were pre-treated for 1 h using 10 μM compound from 10 mM stock in DMSO (or an equal volume of DMSO control) then stressed for 1 h with 1 mM potassium arsenate still in the presence of compound. GFP fluorescence was imaged by widefield epifluorescence using an inverted Olympus IX71 microscope with an Olympus 100× NA 1.4 Plan Apo oil immersion objective and a CoolSNAP HQ CCD camera (Photometrics), using a DeltaVision climate control unit (37° C., 5% CO2) (Applied Precision). The kinetics of pre-stress followed by treatment was analysed from images captured at 2 min intervals for 100 min, for single time points images were captured after 1 h unless otherwise indicated.
fibre formation of G156E FUS (G156E FUS GFP),hardening of FUS droplets (FRAP mobile fraction) (G156E FUS GFP),SMILES,toxicity [1],motor defect / ability to climb [2],"FRAP of aged G156E FUS GFP condensates (G156E FUS GFP; 10 μM lipoamide, dextran crowding, vs 0.1% DMSO)","localisation of EWSR1, TIAL1, PABPC1, G3BP1 GFP to stress granules [3]","flies able to climb 4 cm in 30 s ([2]; food supplementation, from ˜50% without) [%]"
delayed fibre formation,delayed hardening of FUS droplets,"NC(=O)CCCCC1CCSS1 (racemic) [lipoamide, 5-(1,2-dithiolan-3-yl)pentanamide]",non-toxic,recovers defects in motor function,maintain large FUS GFP mobile fraction and short FRAP half-life,"localised to stress granules in the absence of treatment, and not in the presence",–
delayed fibre formation,delayed hardening of FUS droplets,"O=C(O)CCCCC1CCSS1 (racemic) [lipoic acid, 5-(1,2-dithiolan-3-yl)pentanoic acid]",non-toxic,recovered the motor defect in a dose-dependent manner; also recorded: dose-dependent increase in the ability,–,"localised to stress granules in the absence of treatment, and not in the presence",> 80
